# Earlier results as cited in patent US20030194372A1, “Radioimaging probes and the use thereof” (priority 2000, published 2003).
# Tested on: atheroma
# Details: literature reports
compound,measurement,value
"CCC(Cc1c(I)cc(I)c(N)c1I)C(=O)O[C@H]1CC[C@@]2(C)C(=CC[C@H]3[C@@H]4CC[C@H]([C@H](C)CCCC(C)C)[C@@]4(C)CC[C@@H]32)C1 (stereo partly shown) [CI, cholesteryl iopanoate]",Accumulation in atheroma / atherosclerotic lesions,accumulated preferentially in atheroma relative to normal arterial tissue
